The values that follow come from ChEMBL document CHEMBL3991601, “The target landscape of clinical kinase drugs” (Science, 2017).

In test [1] the target is Wee1-like protein kinase (Homo sapiens, UniProt P30291).
Test [2] has as its target Tyrosine-protein kinase Yes (Homo sapiens, UniProt P07947).
For test [3], the target named is Epithelial discoidin domain-containing receptor 1 (Homo sapiens, UniProt Q08345).
Test [4] concerns the target T1, Acyl-CoA dehydrogenase family member 10 (Homo sapiens, UniProt Q6JQN1).
T1 sequence (Q6JQN1 whole entry): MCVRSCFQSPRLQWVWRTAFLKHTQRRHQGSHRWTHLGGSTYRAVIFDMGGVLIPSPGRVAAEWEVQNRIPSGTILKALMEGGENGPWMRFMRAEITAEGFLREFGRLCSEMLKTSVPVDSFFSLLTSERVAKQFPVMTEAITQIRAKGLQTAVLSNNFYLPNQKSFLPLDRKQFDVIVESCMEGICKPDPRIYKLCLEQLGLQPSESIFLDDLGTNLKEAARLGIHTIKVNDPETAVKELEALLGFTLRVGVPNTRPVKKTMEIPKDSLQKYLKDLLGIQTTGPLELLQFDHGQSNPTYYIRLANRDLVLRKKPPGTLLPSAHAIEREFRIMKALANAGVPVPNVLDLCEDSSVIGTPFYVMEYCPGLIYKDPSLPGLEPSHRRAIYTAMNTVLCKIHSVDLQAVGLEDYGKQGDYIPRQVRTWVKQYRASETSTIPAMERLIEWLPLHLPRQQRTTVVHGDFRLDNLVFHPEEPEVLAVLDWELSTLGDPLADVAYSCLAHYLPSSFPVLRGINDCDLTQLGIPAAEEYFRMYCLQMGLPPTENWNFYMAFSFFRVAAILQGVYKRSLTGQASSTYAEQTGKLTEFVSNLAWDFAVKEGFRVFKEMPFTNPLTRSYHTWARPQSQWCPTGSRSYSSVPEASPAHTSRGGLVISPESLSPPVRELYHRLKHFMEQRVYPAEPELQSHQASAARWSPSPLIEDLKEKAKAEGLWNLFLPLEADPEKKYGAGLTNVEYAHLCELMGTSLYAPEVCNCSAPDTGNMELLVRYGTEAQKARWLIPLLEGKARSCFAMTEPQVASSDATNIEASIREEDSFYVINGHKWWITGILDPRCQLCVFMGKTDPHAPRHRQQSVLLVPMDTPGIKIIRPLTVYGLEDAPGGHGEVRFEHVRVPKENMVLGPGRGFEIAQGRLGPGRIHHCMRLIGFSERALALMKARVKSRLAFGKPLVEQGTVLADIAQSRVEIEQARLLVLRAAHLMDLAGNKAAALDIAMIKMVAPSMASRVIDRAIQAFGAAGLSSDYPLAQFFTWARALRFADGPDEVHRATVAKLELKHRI

In test [5] the target is T2, Mitogen-activated protein kinase kinase kinase kinase 3 (Homo sapiens, UniProt Q8IVH8).
T2 sequence (Q8IVH8 whole entry): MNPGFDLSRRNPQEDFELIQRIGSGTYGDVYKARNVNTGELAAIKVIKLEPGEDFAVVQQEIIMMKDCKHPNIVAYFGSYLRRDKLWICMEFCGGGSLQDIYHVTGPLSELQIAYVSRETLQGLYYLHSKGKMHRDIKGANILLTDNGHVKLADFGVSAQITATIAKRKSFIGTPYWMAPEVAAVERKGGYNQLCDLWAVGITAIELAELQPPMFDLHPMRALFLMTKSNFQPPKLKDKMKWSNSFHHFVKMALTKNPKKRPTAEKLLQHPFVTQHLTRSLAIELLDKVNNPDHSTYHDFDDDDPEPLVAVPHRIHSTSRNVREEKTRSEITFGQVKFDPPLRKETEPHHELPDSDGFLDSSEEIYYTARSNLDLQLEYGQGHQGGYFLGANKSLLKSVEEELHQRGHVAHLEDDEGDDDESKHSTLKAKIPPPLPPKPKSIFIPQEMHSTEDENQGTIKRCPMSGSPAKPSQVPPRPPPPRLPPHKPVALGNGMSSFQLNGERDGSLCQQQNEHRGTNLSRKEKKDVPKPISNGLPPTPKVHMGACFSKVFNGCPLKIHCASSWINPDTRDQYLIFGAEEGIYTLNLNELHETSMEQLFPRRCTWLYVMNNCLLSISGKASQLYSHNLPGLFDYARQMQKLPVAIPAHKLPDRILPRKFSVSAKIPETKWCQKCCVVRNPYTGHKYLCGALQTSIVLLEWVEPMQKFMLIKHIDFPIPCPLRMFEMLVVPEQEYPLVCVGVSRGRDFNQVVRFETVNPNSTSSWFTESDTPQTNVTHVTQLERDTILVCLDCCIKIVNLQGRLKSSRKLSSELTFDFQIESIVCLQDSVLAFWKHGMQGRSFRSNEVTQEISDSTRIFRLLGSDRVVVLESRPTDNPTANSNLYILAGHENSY

In test [6] the target is Calcium/calmodulin-dependent protein kinase type II subunit delta (Homo sapiens, UniProt Q13557).
Test [7] addresses Cyclin-dependent kinase 4 (Homo sapiens, UniProt P11802).
The target in test [8] is T3, Phenylalanine--tRNA ligase beta subunit (Homo sapiens, UniProt Q9NSD9).
T3 sequence (Q9NSD9 whole entry): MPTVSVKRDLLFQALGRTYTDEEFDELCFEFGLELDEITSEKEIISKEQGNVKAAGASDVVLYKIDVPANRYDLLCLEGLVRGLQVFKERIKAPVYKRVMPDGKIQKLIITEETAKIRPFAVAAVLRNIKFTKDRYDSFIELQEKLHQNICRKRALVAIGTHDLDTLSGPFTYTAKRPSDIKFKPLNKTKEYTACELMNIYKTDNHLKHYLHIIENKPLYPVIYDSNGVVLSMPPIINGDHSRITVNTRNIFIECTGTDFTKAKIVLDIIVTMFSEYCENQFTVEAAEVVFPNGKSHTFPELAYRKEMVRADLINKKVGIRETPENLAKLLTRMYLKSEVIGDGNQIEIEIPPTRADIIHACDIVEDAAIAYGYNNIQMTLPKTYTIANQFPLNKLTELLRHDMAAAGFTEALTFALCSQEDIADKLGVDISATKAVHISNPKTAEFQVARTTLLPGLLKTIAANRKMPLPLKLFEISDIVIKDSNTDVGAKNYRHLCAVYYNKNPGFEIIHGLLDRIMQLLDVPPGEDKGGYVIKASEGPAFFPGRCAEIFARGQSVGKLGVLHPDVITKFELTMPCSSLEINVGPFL

The target of test [9] is Activated CDC42 kinase 1 (Homo sapiens, UniProt Q07912).

Activity calls are given as the source filed them. Rule as the data show it, for most assays here: actives have a measured Kd and inactives only a lower limit. Bounds are passed on as bounds.
Also: in the data inactive means no Kd found up to 30 µM.

Sequence of Wee1-like protein kinase (P30291 whole entry): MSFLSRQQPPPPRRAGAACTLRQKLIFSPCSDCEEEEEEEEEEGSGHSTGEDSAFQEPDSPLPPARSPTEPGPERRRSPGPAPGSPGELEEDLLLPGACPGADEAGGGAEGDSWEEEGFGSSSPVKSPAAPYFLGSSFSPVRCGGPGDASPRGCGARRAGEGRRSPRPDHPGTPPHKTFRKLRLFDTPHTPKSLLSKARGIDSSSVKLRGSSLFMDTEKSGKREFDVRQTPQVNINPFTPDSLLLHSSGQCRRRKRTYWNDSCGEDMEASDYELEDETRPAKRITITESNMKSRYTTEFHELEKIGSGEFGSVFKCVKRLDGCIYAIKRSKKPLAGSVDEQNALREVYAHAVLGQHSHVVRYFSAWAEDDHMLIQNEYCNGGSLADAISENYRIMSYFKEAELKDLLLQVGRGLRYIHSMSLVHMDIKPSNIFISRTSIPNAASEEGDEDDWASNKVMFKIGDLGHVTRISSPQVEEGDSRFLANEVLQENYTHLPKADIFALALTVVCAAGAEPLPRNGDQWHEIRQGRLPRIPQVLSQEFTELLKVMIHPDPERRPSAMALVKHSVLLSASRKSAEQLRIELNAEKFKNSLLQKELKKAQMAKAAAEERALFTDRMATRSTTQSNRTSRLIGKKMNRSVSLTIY
Sequence of Epithelial discoidin domain-containing receptor 1 (Q08345 whole entry, the tested form may be a part): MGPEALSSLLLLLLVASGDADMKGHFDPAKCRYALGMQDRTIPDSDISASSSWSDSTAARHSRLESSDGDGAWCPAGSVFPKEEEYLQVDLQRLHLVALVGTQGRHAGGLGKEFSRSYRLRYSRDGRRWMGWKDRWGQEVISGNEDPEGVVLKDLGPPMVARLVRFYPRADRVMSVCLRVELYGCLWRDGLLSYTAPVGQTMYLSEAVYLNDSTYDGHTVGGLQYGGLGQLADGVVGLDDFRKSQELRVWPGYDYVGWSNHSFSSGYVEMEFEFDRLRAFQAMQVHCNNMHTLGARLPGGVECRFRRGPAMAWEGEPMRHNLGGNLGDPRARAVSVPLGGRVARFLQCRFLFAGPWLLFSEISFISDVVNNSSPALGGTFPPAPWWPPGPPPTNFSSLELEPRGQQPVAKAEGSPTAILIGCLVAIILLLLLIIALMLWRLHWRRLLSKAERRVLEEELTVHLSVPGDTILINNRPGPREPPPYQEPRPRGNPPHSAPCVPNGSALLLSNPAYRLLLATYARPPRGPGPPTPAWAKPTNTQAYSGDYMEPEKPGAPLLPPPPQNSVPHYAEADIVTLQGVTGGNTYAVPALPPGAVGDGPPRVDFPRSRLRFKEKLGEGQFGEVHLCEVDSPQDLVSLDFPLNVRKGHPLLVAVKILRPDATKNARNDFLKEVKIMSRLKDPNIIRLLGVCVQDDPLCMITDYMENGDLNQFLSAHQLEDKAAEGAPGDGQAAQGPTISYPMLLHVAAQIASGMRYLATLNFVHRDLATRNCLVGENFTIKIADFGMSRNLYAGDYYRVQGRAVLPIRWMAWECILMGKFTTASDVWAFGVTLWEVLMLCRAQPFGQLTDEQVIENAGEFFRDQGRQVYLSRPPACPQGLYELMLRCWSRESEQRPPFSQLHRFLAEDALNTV
Sequence of Cyclin-dependent kinase 4 (P11802 whole entry): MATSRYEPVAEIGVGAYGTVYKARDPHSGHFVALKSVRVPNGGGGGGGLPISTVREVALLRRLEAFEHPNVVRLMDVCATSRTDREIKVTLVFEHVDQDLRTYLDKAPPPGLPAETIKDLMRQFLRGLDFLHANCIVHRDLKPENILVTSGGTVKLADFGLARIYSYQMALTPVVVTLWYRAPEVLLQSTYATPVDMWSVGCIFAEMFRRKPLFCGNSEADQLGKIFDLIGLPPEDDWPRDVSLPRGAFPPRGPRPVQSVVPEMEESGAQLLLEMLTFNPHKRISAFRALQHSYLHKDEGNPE
Sequence of Calcium/calmodulin-dependent protein kinase type II subunit delta (Q13557 whole entry): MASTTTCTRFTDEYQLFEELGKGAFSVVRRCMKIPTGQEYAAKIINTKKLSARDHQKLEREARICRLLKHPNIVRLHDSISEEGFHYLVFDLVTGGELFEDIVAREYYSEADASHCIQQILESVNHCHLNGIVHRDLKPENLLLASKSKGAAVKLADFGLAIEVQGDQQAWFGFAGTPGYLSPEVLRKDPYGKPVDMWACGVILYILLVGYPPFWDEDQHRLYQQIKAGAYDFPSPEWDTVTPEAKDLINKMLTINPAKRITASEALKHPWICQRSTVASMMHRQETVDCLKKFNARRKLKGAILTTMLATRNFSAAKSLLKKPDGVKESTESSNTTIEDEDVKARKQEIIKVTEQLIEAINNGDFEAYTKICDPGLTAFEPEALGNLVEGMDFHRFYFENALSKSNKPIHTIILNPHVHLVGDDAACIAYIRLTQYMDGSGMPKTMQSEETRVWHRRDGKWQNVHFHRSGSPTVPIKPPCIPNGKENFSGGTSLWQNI
Sequence of Tyrosine-protein kinase Yes (P07947 whole entry, the tested form may be a part): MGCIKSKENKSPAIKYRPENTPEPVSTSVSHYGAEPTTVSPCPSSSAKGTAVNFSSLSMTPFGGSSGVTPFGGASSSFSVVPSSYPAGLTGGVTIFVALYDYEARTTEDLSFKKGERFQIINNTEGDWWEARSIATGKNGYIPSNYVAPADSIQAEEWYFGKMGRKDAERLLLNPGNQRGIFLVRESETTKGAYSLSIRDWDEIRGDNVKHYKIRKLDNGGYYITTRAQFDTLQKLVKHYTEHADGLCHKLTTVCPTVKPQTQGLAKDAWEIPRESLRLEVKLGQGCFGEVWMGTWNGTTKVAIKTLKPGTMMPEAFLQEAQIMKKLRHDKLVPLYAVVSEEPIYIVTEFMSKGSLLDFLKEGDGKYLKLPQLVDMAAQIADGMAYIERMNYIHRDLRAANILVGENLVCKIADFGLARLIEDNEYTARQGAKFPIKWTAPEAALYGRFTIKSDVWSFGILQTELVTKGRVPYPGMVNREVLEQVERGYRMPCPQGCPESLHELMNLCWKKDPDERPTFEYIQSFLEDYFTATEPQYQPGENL
Sequence of Activated CDC42 kinase 1 (Q07912 whole entry): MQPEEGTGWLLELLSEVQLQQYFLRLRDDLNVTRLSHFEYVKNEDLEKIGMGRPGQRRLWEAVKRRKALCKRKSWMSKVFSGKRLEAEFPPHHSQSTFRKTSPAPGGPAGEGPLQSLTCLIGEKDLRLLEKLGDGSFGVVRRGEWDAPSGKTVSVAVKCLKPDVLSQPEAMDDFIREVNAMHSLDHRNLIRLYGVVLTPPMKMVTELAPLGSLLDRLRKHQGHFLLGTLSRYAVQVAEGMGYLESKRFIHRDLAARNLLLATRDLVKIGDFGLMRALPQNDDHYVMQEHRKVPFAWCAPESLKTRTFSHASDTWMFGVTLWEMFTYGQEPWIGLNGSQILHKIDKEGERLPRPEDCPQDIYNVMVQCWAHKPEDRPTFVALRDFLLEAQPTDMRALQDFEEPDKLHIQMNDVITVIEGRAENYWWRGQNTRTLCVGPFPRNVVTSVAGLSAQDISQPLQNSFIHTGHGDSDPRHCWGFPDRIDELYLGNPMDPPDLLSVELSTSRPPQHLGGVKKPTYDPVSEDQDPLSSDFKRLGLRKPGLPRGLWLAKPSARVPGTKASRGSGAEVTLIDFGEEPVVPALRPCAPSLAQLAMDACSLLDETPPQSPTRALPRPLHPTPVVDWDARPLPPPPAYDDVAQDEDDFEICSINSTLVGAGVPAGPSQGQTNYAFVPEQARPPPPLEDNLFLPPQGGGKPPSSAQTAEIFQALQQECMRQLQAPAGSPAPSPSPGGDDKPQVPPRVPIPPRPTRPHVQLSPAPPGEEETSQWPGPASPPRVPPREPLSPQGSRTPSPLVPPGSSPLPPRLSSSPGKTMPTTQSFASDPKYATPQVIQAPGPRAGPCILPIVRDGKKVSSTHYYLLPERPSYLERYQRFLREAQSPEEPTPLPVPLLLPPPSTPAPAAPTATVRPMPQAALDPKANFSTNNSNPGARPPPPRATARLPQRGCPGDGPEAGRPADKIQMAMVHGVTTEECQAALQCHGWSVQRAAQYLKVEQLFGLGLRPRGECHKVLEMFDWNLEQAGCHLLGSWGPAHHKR

As usually defined, the Kd is the free concentration of one partner at which half of the binding sites on the other are occupied at equilibrium, for simple one-to-one binding. Regarding `FC(F)(F)c1ccc(CNc2ccc(Cc3c[nH]c4ncc(Cl)cc34)cn2)cn1` [PEXIDARTINIB], the Kd in test [1], in test [2], in test [3], in [4], in test [5] and in test [6] was > 30 µM (inactive) in each case. Besides, the Kd in [7], in [8] and in test [9] was > 30 µM (inactive) in each case.

On to `CNC(=O)c1cc(COc2nnc(Nc3ccc(Cl)cc3)c3ccoc23)ccn1` [TELATINIB], for which the Kd in test [1], in test [2], in test [3], in [4], in [5] and in [6] was > 30 µM (inactive) each time. For the same compound, the Kd in test [7], in test [8] and in [9] was > 30 µM (inactive) throughout.

Take `COc1cc2ncnc3c2cc1OCCCCCN(C)Cc1ccc(Br)cc1N3` [JNJ-26483327]: the Kd in [1], in test [2], in [3], in test [4], in [5] and in test [6] was > 30 µM (inactive) throughout. Moreover, the Kd in [7], in test [8] and in test [9] was > 30 µM (inactive) in each case.

Take `CC1(COc2ccc3c(c2)ncn3-c2ccc3cccc(N4CCC(N)CC4)c3n2)COC1` [CRENOLANIB]: the Kd is > 30 µM (inactive) in test [1]; > 30 µM (inactive) in test [2]; > 30 µM (inactive) in [3]; > 30 µM (inactive) in test [4]; 0.406 µM (active) in [5]; 0.821 µM (active) in test [6]. For the same compound, the Kd in [7], in [8] and in test [9] was > 30 µM (inactive) each time.

In the case of `NC(=O)c1ccc(N(C(N)=O)c2c(F)cccc2F)nc1-c1ccc(F)cc1F` [VX-702], the Kd in test [1], in test [2], in [3], in test [4], in test [5] and in test [6] was > 30 µM (inactive) throughout. Besides, the Kd in test [7], in [8] and in test [9] was > 30 µM (inactive) in each case.

Consider `Cc1cc(-c2cc(OC(=O)c3ccccc3)ccc2Cl)cc2nnc(Nc3ccc(OCCN4CCCC4)cc3)nc12` [TG100-801], for which the Kd in test [1] was > 30 µM (inactive); in test [2] it was 4.43 µM (active); in test [3] it was 1.73 µM; in [4] it was > 30 µM (inactive); in test [5], > 30 µM (inactive); in [6] it was > 30 µM (inactive). Further, the Kd in [7], in [8] and in test [9] was > 30 µM (inactive) in each case.

As for `O=C(Nc1ccc(OC(F)(F)F)cc1)c1sccc1NCc1ccnc2ccccc12` [OSI-930], the Kd in test [1], in test [2], in test [3], in test [4], in test [5] and in test [6] was > 30 µM (inactive) in each case. The Kd in test [7], in test [8] and in test [9] was > 30 µM (inactive) throughout.

Take `COc1ccc(-c2ccc3ncc4c(c3c2)n(-c2ccc(N3CCNCC3)c(C(F)(F)F)c2)c(=O)n4C)cn1` [BGT-226 FREE BASE]: the Kd in test [1], in test [2], in [3], in [4], in test [5] and in test [6] was > 30 µM (inactive) each time. Further, the Kd in test [7], in test [8] and in [9] was > 30 µM (inactive) each time.

On to `O=C(O)c1ccc2c(c1)nc(Nc1cccc(Cl)c1)c1ccncc12` [SILMITASERTIB], for which the Kd in test [1], in test [2], in [3], in [4], in test [5] and in test [6] was > 30 µM (inactive) in each case. In addition, the Kd in test [7], in [8] and in test [9] was > 30 µM (inactive) each time.

As to `c1cc(OCCN2CCCCC2)cc(-c2n[nH]c3ccc(-c4nc[nH]n4)cc23)c1` [CC-401], the Kd in test [1], in test [2], in test [3], in test [4], in test [5] and in test [6] was > 30 µM (inactive) in each case. Also, the Kd in [7], in [8] and in test [9] was > 30 µM (inactive) throughout.

Take `C=CC(=O)Nc1cccc(Nc2nc(Nc3ccc(N4CCN(C(C)=O)CC4)cc3OC)ncc2C(F)(F)F)c1` [ROCILETINIB]: the Kd in [1], in test [2], in [3], in [4], in test [5] and in test [6] was > 30 µM (inactive) in each case. For the same compound, the Kd in test [7], in [8] and in [9] was > 30 µM (inactive) throughout.
